The subject of data set [1] is patients of schizophrenia.
Description: (1) Method of application: Caerulein tris-diethylamine salt is dissolved in sterilized physiological saline at a rate of 20 μg/ml (W/V), and intramuscularly injected to each patient once at a dose of 0.3 μg/kg (body weight) or 0.6 μg/kg (body weight).
Data set [2] deals with rats. The conditions noted are these: intravenous, cited from earlier work.
Data set [3] relates to mice. Particulars: intravenous, cited from earlier work.

Counter-ions that a name gives are not always drawn. Like-named read-outs stand apart in the source and are kept apart here. Where a SMILES comes first, the peptide text is derived from it. [ ]: non-standard residue; d: D form. sY = N[C@@H](Cc1ccc(OS(=O)(=O)O)cc1)C(=O)O; pGlu = O=C1CC[C@@H](C(=O)O)N1

`CSCC[C@H](NC(=O)[C@H](Cc1c[nH]c2ccccc12)NC(=O)CNC(=O)[C@@H](NC(=O)[C@H](Cc1ccc(OS(=O)(=O)O)cc1)NC(=O)[C@H](CC(=O)O)NC(=O)[C@H](CCC(N)=O)NC(=O)[C@@H]1CCC(=O)N1)[C@@H](C)O)C(=O)N[C@@H](CC(=O)O)C(=O)N[C@@H](Cc1ccccc1)C(N)=O` [Caerulein tris-diethylamine salt] ([pGlu]QD[sY]TGWMDF-NH2): the Side effect entry in data set [1] (individual schizophrenia patient, after i.m. injection) is given as “No”.
Take `CSCC[C@H](NC(=O)[C@H](Cc1c[nH]c2ccccc12)NC(=O)CNC(=O)[C@@H](NC(=O)[C@H](Cc1ccc(OS(=O)(=O)O)cc1)NC(=O)[C@H](CC(=O)O)NC(=O)[C@H](CCC(N)=O)NC(=O)[C@@H]1CCC(=O)N1)[C@@H](C)O)C(=O)N[C@@H](CC(=O)O)C(=O)N[C@@H](Cc1ccccc1)C(N)=O` [caerulein, 5-oxo-L-prolyl-L-glutaminyl-L-aspartyl-O-sulfo-L-tryosyl-L-threonylglycyl-L-tryptophyl-L-methionyl-L-aspartyl-L-phenylalaninamide] ([pGlu]QD[sY]TGWMDF-NH2): the LD50 is 571 mg/kg in data set [2] (female), 714 mg/kg in data set [2] (male), 702 mg/kg in data set [3] (female) and 647 mg/kg in data set [3] (male). In addition, the mental conditions result in data set [1] (administered to humans) is “improves rapidly and markedly the mental conditions”.

The LD50 is the dose expected to kill half of the subjects tested.

The values are drawn from patent US4552865A, “Psychotropic drugs” (Shionogi & Co., Ltd., priority 1981, dated 1985).
